US7807676B2, “Diketo-Piperazine and Piperidine derivatives as antiviral agents” (priority 2006, dated 2010)
Counter-ions that a name gives are not always drawn.

Test system: HIV-1 single-round infectious reporter virus
Assay: Single-round infectious HIV-1 luciferase reporter virus infection of HeLa CD4 cells (antiviral EC50)
Assay type: cell-based
Conditions: Human immunodeficiency virus 1, HeLa, read-out: EC50 Group from Table 3
Procedure, shortened: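 Env-pseudotyped single-round HIV-1 reporter virus (env-deleted provirus with luciferase in place of nef, made in 293 cells) infected HeLa CD4 cells at MOI ~0.01 with compound present, up to 10 μM final. Luciferase luminescence read after 72 h at 37 °C; EC50 from four-parameter logistic fit of % inhibition over 10 concentrations.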

Row | SMILES | EC50
1 | CN(C)C(=O)C(=O)Nc1ncc(F)c2c(C(=O)C(=O)N3CCN(c4nnnn4-c4ccccc4)CC3)c[nH]c12 [B-20, N^1-(4-fluoro-3-(2-oxo-2-(4-(1-phenyl-1H-tetrazol-5-yl)piperazin-1-yl)acetyl)-1H-pyrrolo[2,3-c]pyridin-7-yl)-N^2,N^2-dimethyloxalamide] | < 500 nM
2 | CN(CCO)C(=O)c1cc(-c2ncc(F)c3c(C(=O)C(=O)N4CCN(c5nnnn5-c5ccccc5)CC4)c[nH]c23)n[nH]1 [B-36] | < 500 nM
3 | O=C(C(=O)N1CCN(c2nc3ccccc3n2-c2ccccc2)CC1)c1c[nH]c2c(-n3ccnn3)ncc(F)c12 [A-37] | < 500 nM
4 | O=C(c1ccccn1)c1cccnc1N1CCN(C(=O)C(=O)c2c[nH]c3c(-n4ccnn4)ncc(F)c23)CC1 [D-32] | < 500 nM
5 | CCC(O)(CC)c1cc(-c2ncc(OC)c3c(C(=O)C(=O)N4CCN(c5nnnn5-c5ccccn5)CC4)c[nH]c23)n[nH]1 [B-78] | < 500 nM
6 | O=C(C(=O)N1CCN(c2nnnn2C2CCCCC2)CC1)c1c[nH]c2c(-n3ccnn3)ncc(F)c12 [E-8] | < 500 nM
7 | O=C(C(=O)N1CCN(c2nccn2-c2ccccc2)CC1)c1c[nH]c2c(-n3ccnn3)ncc(F)c12 [A-49] | < 500 nM
8 | O=C(C(=O)N1CCN(c2nnc(O)n2-c2ccccc2)CC1)c1c[nH]c2c(-n3ccnn3)ncc(F)c12 [A-22] | < 500 nM
9 | C[C@H]1CN(C(=O)C(=O)c2c[nH]c3c(-n4ccnn4)ncc(F)c23)CCN1c1nnnn1-c1ccccc1 [A-61] | < 500 nM
10 | COc1cnc(-n2cnc(C)n2)c2[nH]cc(C(=O)C(=O)N3CCN(c4cc(N(C)C)nnc4-c4ccccc4)CC3)c12 [G-14b] | < 500 nM
11 | O=C(C(=O)N1CCN(c2nccnc2-c2ccccc2)CC1)c1c[nH]c2c(-n3ccnn3)ncc(F)c12 [A-17] | < 500 nM
12 | O=C(C(=O)N1CCN(c2nnnn2-c2ccccc2)CC1)c1c[nH]c2c(-c3cc(C(=O)N4CCN(C(=O)C5CCCO5)CC4)[nH]n3)ncc(F)c12 (stereo not drawn) [F-4] | < 500 nM
13 | COc1ccc(-n2nnnc2N2CCN(C(=O)C(=O)c3c[nH]c4c(-n5ccnn5)ncc(F)c34)CC2)cc1 [E-10] | > 500 nM
14 | O=C(C(=O)N1CCN(c2nnnn2-c2ccccc2)CC1)c1c[nH]c2c(-c3cc(C(=O)N4CCSC4)[nH]n3)ncc(F)c12 [F-10] | < 500 nM
15 | COc1cnc(-c2cccnc2Cl)c2[nH]cc(C(=O)C(=O)N3CCN(c4nnnn4-c4ccccn4)CC3)c12 [H-4] | < 500 nM
16 | CN1CCN(CCCNC(=O)c2cc(-c3ncc(F)c4c(C(=O)C(=O)N5CCN(c6nnnn6-c6ccccc6)CC5)c[nH]c34)n[nH]2)CC1 [B-39] | < 500 nM
17 | O=C(C(=O)N1C[C@@H]2CC[C@H]1CN2c1nnnn1-c1ccccc1)c1c[nH]c2c(-n3ccnn3)ncc(F)c12 [A-72] | < 500 nM
18 | COc1cnc(-c2csc(C3OCCO3)n2)c2[nH]cc(C(=O)C(=O)N3CCN(c4nnnn4-c4ccccc4)CC3)c12 [B-58] | < 500 nM
19 | COc1cnc(-n2cnc(C)n2)c2[nH]cc(C(=O)C(=O)N3CCN(c4[nH]nnc4-c4ccccc4)CC3)c12 [G-8b] | < 500 nM
20 | N#CCCCC(=O)c1cccnc1N1CCN(C(=O)C(=O)c2c[nH]c3c(-n4ccnn4)ncc(F)c23)CC1 [D-46] | > 500 nM
21 | COc1cnc(-n2cnc(C)n2)c2[nH]cc(C(=O)C(=O)N3CCN(c4nnnn4-c4ccccn4)CC3)c12 [E-2] | < 500 nM

Row | SMILES | EC50
22 | COc1cnc(-c2cc(C(=O)NCCN(C)C)[nH]n2)c2[nH]cc(C(=O)C(=O)N3CCN(c4nnnn4-c4ccccc4)CC3)c12 [B-16, N-(2-(dimethylamino)ethyl)-3-(4-methoxy-3-(2-oxo-2-(4-(1-phenyl-1H-tetrazol-5-yl)piperazin-1-yl)acetyl)-1H-pyrrolo[2,3-c]pyridin-7-yl)-1H-pyrazole-5-carboxamide.TFA] | < 500 nM
23 | COc1cnc(-c2ccnc(C)c2)c2[nH]cc(C(=O)C(=O)N3CCN(c4nnnn4-c4ccccn4)CC3)c12 [H-12] | < 500 nM
24 | COc1cnc(-n2cnc(C)n2)c2[nH]cc(C(=O)C(=O)N3CCN(c4nnnn4-c4ccccc4)C[C@H]3C)c12 [A-30] | < 500 nM
25 | COc1cnc(-n2cnc(C)n2)c2[nH]cc(C(=O)C(=O)N3CCN(c4nonc4-c4ccccc4)CC3)c12 [G-1a] | < 500 nM
26 | N#Cc1ncc(F)c2c(C(=O)C(=O)N3CCN(c4nnnn4-c4ccccc4)CC3)c[nH]c12 [B-46] | > 500 nM
27 | COc1cnc(-n2cnc(C)n2)c2[nH]cc(C(=O)C(=O)N3CCC(C4=NCCN4c4ccccc4)CC3)c12 [G-17b] | < 500 nM
28 | CN(C)CCn1ccc(-c2ncc(F)c3c(C(=O)C(=O)N4CCN(c5nnnn5-c5ccccc5)CC4)c[nH]c23)n1 [B-30] | < 500 nM
29 | COc1cnc(-n2cnc(C)n2)c2[nH]cc(C(=O)C(=O)N3CCN(c4nccnc4OC(C)C)CC3)c12 [D-49] | < 500 nM
30 | COc1cnc(-c2cnc(C)s2)c2[nH]cc(C(=O)C(=O)N3CCN(c4nnnn4-c4ccccn4)CC3)c12 [B-90] | < 500 nM
31 | O=C(C(=O)N1CCN(c2nnnn2-c2ccccc2)CC1)c1c[nH]c2c(-c3cc(C(=O)N4CCN(CCN5CCOCC5)CC4)[nH]n3)ncc(F)c12 [F-7] | < 500 nM
32 | Cc1cc(NC(=O)c2cccnc2N2CCN(C(=O)C(=O)c3c[nH]c4c(-n5ccnn5)ncc(F)c34)CC2)no1 [D-39] | > 500 nM
33 | COc1cnc(-c2cc(C(C)(C)O)[nH]n2)c2[nH]cc(C(=O)C(=O)N3CCN(c4nnnn4-c4ccccn4)CC3)c12 [B-68] | < 500 nM
34 | COc1cnc(-n2cnc(C)n2)c2[nH]cc(C(=O)C(=O)N3CCN(c4nnnn4-c4ccccc4)CC3)c12 [A-9] | < 500 nM
35 | COc1cnc(-c2cnccc2C)c2[nH]cc(C(=O)C(=O)N3CCN(c4nnnn4-c4ccccn4)CC3)c12 [H-7] | < 500 nM
36 | COc1cnc(-n2cnc(C)n2)c2[nH]cc(C(=O)C(=O)N3CCN(c4nnnn4-c4cccnn4)CC3)c12 [E-12d] | < 500 nM
37 | O=C(C(=O)N1CCN(c2cn(CCN3CCOCC3)nc2-c2ccccc2)CC1)c1c[nH]c2c(-n3ccnn3)ncc(F)c12 [G-16] | < 500 nM
38 | COc1cnc(-c2ccc(N3CCN(C(=O)OC(C)C)CC3)cc2)c2[nH]cc(C(=O)C(=O)N3CCN(c4nnnn4-c4ccccn4)CC3)c12 [B-83] | < 500 nM
39 | COc1cnc(-n2cnc(C)n2)c2[nH]cc(C(=O)C(=O)N3CCC(N4CCN=C4c4ccccc4)CC3)c12 [G-10b] | > 500 nM
40 | O=C(NC1CCCCC1)c1cccnc1N1CCN(C(=O)C(=O)c2c[nH]c3c(-n4ccnn4)ncc(F)c23)CC1 [D-34] | < 500 nM
41 | CN(C)CCN(C)C(=O)c1cc(-c2ncc(F)c3c(C(=O)C(=O)N4CCN(c5nnnn5-c5ccccc5)CC4)c[nH]c23)n[nH]1 [B-35] | < 500 nM
42 | O=C(NCCN1CCCC1)c1cc(-c2ncc(F)c3c(C(=O)C(=O)N4CCN(c5nnnn5-c5ccccc5)CC4)c[nH]c23)n[nH]1 [B-40] | < 500 nM
